This is an account of results in patent publication US7829665B2 (priority 2005, dated 2010).

The target of assay [1] is T1, full-length NS3/NS4A-2 (HCV NS3 protease) (Hepatitis C virus genotype 1a, UniProt P27958).
T1 construct: Recombinant E. coli or Baculovirus full-length NS3 was diluted to 3.33 μM with assay buffer; made in house; host or cells: E. coli or baculovirus (BV) expression system
As to the kind of experiment: NS3-NS4 protease assay / NS3 inhibition assay (RETS1 substrate, fluorescence kinetic read). It is filed as biochemical. In short, it runs like this:
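Ki values come from IC50 fits corrected via Ki=IC50/(1+[S]/Km), with Km 2.03 μM for E. coli and 1.74 μM for baculovirus full-length NS3. Enzyme (2 or 3 nM NS3, respectively, complexed with NS4A-2) sat with compound, top concentration 50 microM, for 10 min at room temperature. Cleavage of RETS1 (8 μM working solution) was then followed by fluorescence (335/495 nm) over 30 min.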

Assay [2] concerns HCV sub-genomic replicon in GS4.3 cells (HuH-7 hepatoma cells). As to the kind of experiment: Quantitation by ELISA of Neomycin phosphotransferase II (NPTII) in the HCV sub-genomic replicon, GS4.3. The assay is classed as cell-based, hepatitis C virus. The settings on record: Hepatitis C virus, Huh-7; GS4.3 cells, 72 h incubation, NPTII ELISA; read-out: Replicon EC50. In short, it runs like this:
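Replicon-bearing HuH-7 (GS4.3) cells were exposed to compounds for 72 h in G418-free medium, top final concentration 10 μM, 1% DMSO. Lysates went to an NPTII ELISA read at 450 nm. Signal was normalised to DMSO-treated wells and EC50 was derived by four-parameter curve fitting.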
On the technique in general: ELISA stands for enzyme-linked immunosorbent assay.

[3] abbreviates: recombinant E. coli or Baculovirus full-length NS3 with NS4A-2, read-out: NS3-NS4 IC50.

Like-named read-outs stand apart in the source and are kept apart here.

T1 sequence (P27958 1027-1657): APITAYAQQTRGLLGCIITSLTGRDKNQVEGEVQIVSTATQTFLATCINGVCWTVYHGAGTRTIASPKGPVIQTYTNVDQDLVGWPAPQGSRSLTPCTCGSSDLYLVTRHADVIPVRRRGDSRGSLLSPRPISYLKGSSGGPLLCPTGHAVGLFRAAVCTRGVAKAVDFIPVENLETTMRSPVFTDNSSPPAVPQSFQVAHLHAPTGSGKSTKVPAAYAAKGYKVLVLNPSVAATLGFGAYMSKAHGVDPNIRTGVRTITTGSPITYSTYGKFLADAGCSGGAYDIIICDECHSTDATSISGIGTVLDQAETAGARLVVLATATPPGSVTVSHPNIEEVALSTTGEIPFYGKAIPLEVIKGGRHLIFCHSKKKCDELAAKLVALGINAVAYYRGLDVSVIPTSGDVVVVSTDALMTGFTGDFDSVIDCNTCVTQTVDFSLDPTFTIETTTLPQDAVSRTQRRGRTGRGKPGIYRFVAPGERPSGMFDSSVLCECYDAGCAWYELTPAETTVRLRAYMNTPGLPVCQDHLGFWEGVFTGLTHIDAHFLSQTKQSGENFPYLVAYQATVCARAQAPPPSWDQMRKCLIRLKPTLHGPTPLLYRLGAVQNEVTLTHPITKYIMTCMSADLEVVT

A word on the IC50: it is the concentration at which inhibition is half-maximal. In general, EC50 refers to the midpoint of the concentration-response curve. For the compound `CC(C)(C)OC(=O)N[C@H]1CCCCC/C=C\[C@@H]2C[C@@]2(C(=O)O)NC(=O)[C@@H]2C[C@@H](OC(=O)N3Cc4ccc(C(F)(F)F)cc4C3)CN2C1=O` [Compound 110], the concentration for half-maximal inhibition (IC50) in assay [1] (setting [3]) is less than 1000 nM. In addition, the concentration for a half-maximal effect (EC50) in assay [2] is less than 10 µM.
Taken in the same sequence, the figures for `CN(C)c1c(N[C@H]2CCCCC/C=C\[C@@H]3C[C@@]3(C(=O)NS(=O)(=O)C3CC3)NC(=O)[C@@H]3C[C@@H](OC(=O)N4Cc5cccc(F)c5C4)CN3C2=O)c(=O)c1=O` [Compound 185] were less than 100 nM and less than 10 µM.
Taken in the same sequence, the figures for `Cc1cc(CN[C@H]2CCCCC/C=C\[C@@H]3C[C@@]3(C(=O)NS(=O)(=O)C3CC3)NC(=O)[C@@H]3C[C@@H](OC(=O)N4Cc5cccc(F)c5C4)CN3C2=O)oc1C` [Compound 915] were less than 100 nM and less than 0.1 µM.
Turning to `N[C@H]1CCCCC/C=C\[C@@H]2C[C@@]2(C(=O)NS(=O)(=O)c2cccs2)NC(=O)[C@@H]2C[C@@H](OC(=O)N3Cc4cccc(Cl)c4C3)CN2C1=O` [Compound 169], the concentration for half-maximal inhibition (IC50) in assay [1] is less than 100 nM. In addition, the EC50 in assay [2] is less than 10 µM.
On to `O=C(CCC(F)(F)F)N[C@H]1CCCCC/C=C\[C@@H]2C[C@@]2(C(=O)O)NC(=O)[C@@H]2C[C@@H](OC(=O)N3Cc4cccc(Cl)c4C3)CN2C1=O` [Compound 142], for which the IC50 in assay [1] (setting [3]) was less than 100 nM. Also, the half-maximal effective concentration (EC50) in assay [2] is less than 10 µM.
In the same order, the values of `O=C1N[C@]2(C(=O)O)C[C@H]2/C=C\CCCCC[C@H](Nc2c(N3CCC3)c(=O)c2=O)C(=O)N2C[C@H](OC(=O)N3Cc4cccc(F)c4C3)C[C@@H]12` [Compound 238] are less than 100 nM and less than 10 µM.
In the same order, the values of `CNc1c(NC(=O)[C@@]23C[C@H]2/C=C\CCCCC[C@H](NC(=O)OC(C)(C)C)C(=O)N2C[C@H](OC(=O)N4Cc5cccc(F)c5C4)C[C@H]2C(=O)N3)c(=O)c1=O` [Compound 646] are less than 1000 nM and more than 10 µM.
In the same order, the values of `O=C1N[C@]2(C(=O)NS(=O)(=O)C3CC3)C[C@H]2/C=C\CCCCC[C@H](Nc2c(N3CCC3)c(=O)c2=O)C(=O)N2C[C@H](OC(=O)N3Cc4cccc(Cl)c4C3)C[C@@H]12` [Compound 241, (2R,6S,13aS,14aR,16aS,Z)-6-(2-(azetidin-1-yl)-3,4-dioxocyclobut-1-enylamino)-14a-(cyclopropylsulfonylcarbamoyl)-5,16-dioxo-1,2,3,5,6,7,8,9,10,11,13a,14,14a,15,16,16a-hexadecahydrocyclopropa[e]pyrrolo[1,2-a][1,4]diazacyclopentadecin-2-yl 4-chloroisoindoline-2-carboxylate] are less than 100 nM and less than 1 µM.
Take `O=C(NC1CCCC1)N[C@H]1CCCCC/C=C\[C@@H]2C[C@@]2(C(=O)NS(=O)(=O)C2CC2)NC(=O)C2C[C@@H](OC(=O)N3Cc4cccc(Cl)c4C3)CN2C1=O` (some centres unmarked) [Compound 180]: in assay [1] (setting [3]), the IC50 is less than 100 nM. Further, in assay [2], the EC50 is less than 0.1 µM.
In the same order, the values of `CC(C)(C)OC(=O)N[C@H]1CCNCC/C=C\[C@@H]2C[C@@]2(C(=O)NS(=O)(=O)C2CC2)NC(=O)[C@@H]2C[C@@H](OC(=O)N3Cc4cccc(F)c4C3)CN2C1=O` [Compound 1031] are less than 100 nM and less than 1 µM.
Taken in the same sequence, the figures for `CC(C)(C)OC(=O)N[C@H]1CCCCC/C=C\[C@@H]2C[C@@]2(C(=O)NCc2cccc(C(=O)O)c2)NC(=O)[C@@H]2C[C@@H](OC(=O)N3Cc4cccc(F)c4C3)CN2C1=O` [Compound 617] were less than 100 nM and more than 10 µM.
In the same order, the values of `CC(C)(C)C(=O)N[C@H]1CCCCC/C=C\[C@@H]2C[C@@]2(C(=O)NC#N)NC(=O)C2C[C@@H](OC(=O)N3Cc4cccc(F)c4C3)CN2C1=O` (some centres unmarked) [Compound 640] are less than 100 nM and more than 10 µM.
Turning to `O=C(N[C@H]1CCC(F)(F)CC/C=C\[C@@H]2C[C@@]2(C(=O)NS(=O)(=O)C2CC2)NC(=O)[C@@H]2C[C@@H](OC(=O)N3Cc4cccc(F)c4C3)CN2C1=O)OC1CCCC1` [Compound 1004], the concentration for half-maximal inhibition (IC50) in assay [1] (setting [3]) was less than 100 nM. Also, in assay [2], the 50% effective concentration (EC50) is less than 0.1 µM.
